Measurements: patent publication US4102887A, “Intermediates used in the preparation of phenyl-pyridylamine derivatives” (priority 1974, dated 1978)
Structures can show the parent of a compound that is named as a salt. Where two headings read alike, the source gives them in different places.

Columns and labels:
[1] = tested on: neuronal uptake of noradrenaline; experiment: Inhibition of uptake of 3H-NA in brain slices after in vivo (i.p.) administration; parameters: species or system mouse
Method: (§1) It is not possible by experimental means to induce depressions in laboratory animals. In order to evaluate a possible anti-depressive effect of new substances biochemicalpharmacological test methods must be resorted to. One such method, which seems to give a good indication of the potential anti-depressive effects of the test substances, is described in Europ.
(§2) The test substances were administered intraperitoneally half an hour before the animals were killed. […] The incubation time was 5 minutes with 5 minutes of preincubation before the labelled amines were added. The slices were dissolved in Soluene® and the amounts of radio-active amines taken up were determined by liquid scintillation. […] Active uptake is defined as that part of the radioactive uptake which is inhibited by a high concentration of cocaine.

[2] = cited from earlier work
[3] = literature / prior patents; cited from earlier work
[4] = tested on: neuronal uptake of 5-hydroxytryptamine; experiment: Inhibition of uptake of 14C-5-HT in vitro in slices of mouse midbrain; type: cell-based
Method: as §1, §2
(§3) In the in vitro method, slices of mouse midbrain were preincubated for 5 minutes with a solution of the compound to be tested and then incubated as described above.

[5] = tested on: neuronal uptake of noradrenaline; experiment: Inhibition of uptake of 3H-NA in vitro in slices of mouse midbrain; type: cell-based; settings: in words; in vitro or in vivo not stated
Method: as §1, §2, §3

[6] = tested on: neuronal uptake of 5-hydroxytryptamine; experiment: Inhibition of uptake of 14C-5-HT in brain slices after in vivo (i.p.) administration; parameters: species or system mouse; settings: in words
Method: as §1, §2

CNC/C=C(/c1ccc(Br)cc1)c1cccnc1 [H Z hydrochloride, (Z)-3-(4-bromophenyl)-3-(3-pyridyl)-N-methyl-allylamine]
inhibition at 101 µmol/kg ([1]; Mus musculus, ip, at the dose 101 μmole/kg i.p.): 39%
Uptake of 3H-NA in vivo ED50 ([1]; i.p., half an hour before killing, mouse midbrain slices, dose for 50 percent decrease of active uptake, 30 min): > 101 µmol/kg

CNC/C=C(/c1ccc(Br)cc1)c1cccnc1 [H Z oxalate, (Z)-3-(4-bromophenyl)-3-(3-pyridyl)-N-methyl-allylamine]
ED50 ([1]; Mus musculus, ip, 0.5 h, i.p., half an hour before killing, mouse midbrain slices, dose for 50 percent decrease of active uptake): 102 µmol/kg

CNCCC=C1c2ccccc2CCc2ccccc21 [nortriptyline]
side effects ([2]; therapeutic use, arrhythmogenic in large doses to old patients): orthostatism, anticholinergic effects and above all, an arrhythmogenic i.e. heart arrhythmia developing effect
start of the antidepressive effect ([2]; therapeutic use): does not start until some weeks after treatment

CNCCCN1c2ccccc2CCc2ccccc21 [desipramine]
side effects ([2]; in vivo): orthostatism, anticholinergic effects and above all, an arrhythmogenic i.e. heart arrhythmia developing effect
start of the antidepressive effect ([2]; therapeutic use): does not start until some weeks after treatment

CN(C)CC=C(c1ccccc1)c1ccccc1
antidepressive effect [3]: have an antidepressive effect

CNCC=C(c1ccc(Br)cc1)c1cccnc1 [H mixture oxalate, N-methyl-3-(4-bromophenyl)-3-(3-pyridyl)allylamine oxalate]
EC50 ([4]; Mus musculus, mouse midbrain slices, 5 min preincubation, 5 min incubation): 500 nM

CN(C)CCCN1c2ccccc2CCc2ccccc21 [imipramine]
side effects ([2]; in vivo): orthostatism, anticholinergic effects and above all, an arrhythmogenic i.e. heart arrhythmia developing effect
start of the antidepressive effect ([2]; therapeutic use): does not start until some weeks after treatment

CNC/C=C(\c1ccc(Br)cc1)c1cccnc1 [E-form of the compound of the invention, (E)-3-(4-bromophenyl)-3-(3-pyridyl)-N-methyl-allylamine]
preferential inhibition of noradrenaline uptake [5]: primarily inhibits the uptake of noradrenaline

CNC/C=C(/c1ccc(Br)cc1)c1cccnc1 [Z-form of the compound of the invention, (Z)-3-(4-bromophenyl)-3-(3-pyridyl)-N-methyl-allylamine]
inhibition of the uptake of 5-HT in vivo, compared with prior art compounds [6]: stronger inhibition of the uptake of 5-HT in vivo than do any of the prior art compounds tested
inhibition of the uptake of 5-HT in vitro, compared with prior art compounds ([4]; in words, tested as the hydrochloride): more potent inhibitor of the uptake of 5-HT in vitro than any of the prior art compounds

CN(C)CCC=C1c2ccccc2CCc2ccccc21 [amitriptyline]
side effects ([2]; in vivo): orthostatism, anticholinergic effects and above all, an arrhythmogenic i.e. heart arrhythmia developing effect
start of the antidepressive effect ([2]; therapeutic use): does not start until some weeks after treatment
